Molecular target: T1, human NOX4 (Homo sapiens, UniProt Q9NPH5)
T1 construct: The full-length human NOX4 (NM_016931.3) transcript was cloned; expressed in transfected cells
T1 sequence (Q9NPH5 1-578): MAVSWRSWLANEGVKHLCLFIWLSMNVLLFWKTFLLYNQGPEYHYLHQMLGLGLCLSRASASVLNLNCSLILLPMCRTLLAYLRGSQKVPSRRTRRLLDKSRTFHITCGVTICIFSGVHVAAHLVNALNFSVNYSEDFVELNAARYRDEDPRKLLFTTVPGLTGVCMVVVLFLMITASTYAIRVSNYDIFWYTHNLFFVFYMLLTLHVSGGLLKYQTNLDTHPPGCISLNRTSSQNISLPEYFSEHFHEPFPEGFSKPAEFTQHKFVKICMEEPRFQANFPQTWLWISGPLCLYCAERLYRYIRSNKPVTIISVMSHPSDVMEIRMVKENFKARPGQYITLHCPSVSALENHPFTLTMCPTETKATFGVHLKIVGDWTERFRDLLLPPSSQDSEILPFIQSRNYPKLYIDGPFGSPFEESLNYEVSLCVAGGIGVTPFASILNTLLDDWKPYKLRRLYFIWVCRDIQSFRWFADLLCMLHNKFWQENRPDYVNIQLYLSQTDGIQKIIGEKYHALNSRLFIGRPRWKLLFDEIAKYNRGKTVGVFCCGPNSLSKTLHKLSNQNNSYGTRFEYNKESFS
T1 sequence (P13498 1-195 partner): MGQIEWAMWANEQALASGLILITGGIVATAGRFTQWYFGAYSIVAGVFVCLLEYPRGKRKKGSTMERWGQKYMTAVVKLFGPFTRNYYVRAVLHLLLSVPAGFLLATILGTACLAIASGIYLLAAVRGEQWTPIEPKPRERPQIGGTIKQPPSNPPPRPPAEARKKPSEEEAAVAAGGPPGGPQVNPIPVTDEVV
Assay: Amplex Red activity assay (cellular H2O2 formation in hNOX4 T-REx-293 cells)
Type: cell-based
Conditions: tet-induced 24 h, extracellular H2O2 by Amplex Red, 60 min 25° C., geometric mean if determined several times
Method: The nucleotide sequence and the amino acid sequence for the human NOX4 (Entrez Gene ID 50507) is known in the art and are published. The potency and efficacy of the compounds of Formula (I) are assessed for their potential to inhibit the formation of ROS in a cellular assay.
The full-length human NOX4 (NM_016931.3) transcript was cloned into the pDONR™221 vector (Life Technologies™) in order to generate, by site-specific integration according to the recommendation of the manufacturer (Life Technologies™), a recombinant pJTI™ R4 DEST CMV-TO vector containing the NOX4 coding information controlled by tetracycline (tet) responsive tet-on cytomegalovirus promoter (hNOX4 pDEST).
Modified human embryonic kidney cells overexpressing a tet receptor (Jump-In™ T-REx™ HEK293; Life Technologies™) were transfected with the NOX4-containing tet-on vector (hNOX4 pDEST) to generate a stable recombinant cell pool (hNOX4 T-REx-293). hNOX4 T-REx-293 cells were cultured in DMEM containing 4.5 g/L glucose supplemented with 10% fetal calf serum, penicillin (100 U/mL), streptomycin (100 μg/mL), geneticin (1 mg/mL), and blasticidin (5 μg/mL) at 37° C. in air with 5% CO2. Human Nox4 expression was induced with tet (1 μg/mL) for 24 h and extracellular H2O2 was quantified using the Amplex Red reagent (Life Technologies™).
Compounds were prepared as 10 mM stock solution in DMSO vehicle, then diluted in 384-well plates using DMSO followed by a transfer of the dilutions into the assay plate. As a control, diphenylene iodonium was included at a final concentration of 10 μM. Compounds were tested at 10 concentrations in the range from 50 μM highest to 100 nM lowest.
Cellular H2O2 formation was measured using the Amplex Red reagent. […] Cells were seeded into 384-well clear bottom plates at a density of 20 000 cells per well in presence or absence of compounds. […] All wells contained 1.25% of DMSO. The plates were kept at 25° C. for 60 min. The amount of produced resorufin was detected with the Synergy™ Mx microplate reader (BioTek) with excitation and emission wavelengths set to 550 nm and 600 nm, respectively. Fluorescence was measured for each well and the fluorescence at 600 nm wavelength was compared to the fluorescence of the vehicle in place of compound. Inhibitory activities of example compounds were determined by calculating the IC50 value (the concentration of compound needed to inhibit 50% of the enzyme activity). The calculated IC50 values may fluctuate depending on the daily cellular assay performance. Fluctuations of this kind are known to those skilled in the art.

| SMILES | IC50 [nM] |
| --- | --- |
| O=C(Nc1ccc2oc(N3CCCCC34COC4)nc2c1)c1ccc2c(c1)CCO2 [Example 26, 2,3-Dihydro-benzofuran-5-carboxylic acid [2-(2-oxa-5-aza-spiro[3.5]non-5-yl)-benzooxazol-5-yl]-amide] | 1490 |
| O=C(Nc1ccc2oc(N3CCC4(CCO4)CC3)nc2c1)c1ccc2c(c1)CCO2 [Example 27, 2,3-Dihydro-benzofuran-5-carboxylic acid [2-(1-oxa-7-aza-spiro[3.5]non-7-yl)-benzooxazol-5-yl]-amide] | 729 |
| O=C(Nc1ccc2oc(N3CCC4(CCCO4)CC3)nc2c1)c1ccc2c(c1)CCO2 [Example 29, 2,3-Dihydro-benzofuran-5-carboxylic acid [2-(1-oxa-8-aza-spiro[4.5]dec-8-yl)-benzooxazol-5-yl]-amide] | 541 |
| O=C(Nc1ccc2oc(N3CC4(CCOCC4)C3)nc2c1)c1ccc2c(c1)CCO2 [Example 30, 2,3-Dihydro-benzofuran-5-carboxylic acid [2-(7-oxa-2-aza-spiro[3.5]non-2-yl)-benzooxazol-5-yl]-amide] | 1230 |
| O=C(Nc1ccc2oc(N3CC4(CCCO4)C3)nc2c1)c1ccc2c(c1)CCO2 [Example 31, 2,3-Dihydro-benzofuran-5-carboxylic acid [2-(5-oxa-2-aza-spiro[3.4]oct-2-yl)-benzooxazol-5-yl]-amide] | 2170 |
| O=C(Nc1ccc2oc(N3CC(N4CCC(O)CC4)C3)nc2c1)c1ccc2c(c1)CCO2 [Example 32, 2,3-Dihydro-benzofuran-5-carboxylic acid {2-[3-(4-hydroxy-piperidin-1-yl)-azetidin-1-yl]-benzooxazol-5-yl}-amide] | 2410 |
| CN1CCCC2(C1)CN(c1nc3cc(NC(=O)c4ccc5c(c4)CCO5)ccc3o1)C2 [Example 33, 2,3-Dihydro-benzofuran-5-carboxylic acid [2-(6-methyl-2,6-diaza-spiro[3.5]non-2-yl)-benzooxazol-5-yl]-amide] | 2140 |
| O=C(Nc1ccc2oc(N3CC4(CCCCO4)C3)nc2c1)c1ccc2c(c1)CCO2 [Example 34, 2,3-Dihydro-benzofuran-5-carboxylic acid [2-(5-oxa-2-aza-spiro[3.5]non-2-yl)-benzooxazol-5-yl]-amide] | 1220 |
| O=C(Nc1ccc2oc(N3CCC34CCC4)nc2c1)c1ccc2c(c1)CCO2 [Example 35, 2,3-Dihydro-benzofuran-5-carboxylic acid [2-(1-aza-spiro[3.3]hept-1-yl)-benzooxazol-5-yl]-amide] | 379 |
| O=C(Nc1ccc2oc(N3CCC34CCOCC4)nc2c1)c1ccc2c(c1)CCO2 [Example 36, 2,3-Dihydro-benzofuran-5-carboxylic acid [2-(7-oxa-1-aza-spiro[3.5]non-1-yl)-benzooxazol-5-yl]-amide] | 404 |
| CC(C)(C)OC(=O)C1CN(c2nc3cc(NC(=O)c4ccc5c(c4)CCO5)ccc3o2)C1 [Example 37, 1-{5-[(2,3-Dihydro-benzofuran-5-carbonyl)-amino]-benzooxazol-2-yl}-azetidine-3-carboxylic acid tert-butyl ester] | 841 |
| O=C(Nc1ccc2oc(N3CCCC3=O)nc2c1)c1ccc2c(c1)CCO2 [Example 38, 2,3-Dihydro-benzofuran-5-carboxylic acid [2-(2-oxo-pyrrolidin-1-yl)-benzooxazol-5-yl]-amide] | 1750 |
| O=C(Nc1ccc2oc(N3CCS(=O)(=O)CC3)nc2c1)c1ccc2c(c1)OCCO2 [Example 39, 2,3-Dihydro-benzo[1,4]dioxine-6-carboxylic acid [2-(1,1-dioxo-thiomorpholin-4-yl)-benzooxazol-5-yl]-amide] | 444 |
| O=C(Nc1ccc2oc(N3CCS(=O)(=O)CC3)nc2c1)c1ccc2c(c1)CCCO2 [Example 40, Chroman-6-carboxylic acid [2-(1,1-dioxo-thiomorpholin-4-yl)-benzooxazol-5-yl]-amide] | 812 |
| CN1CCOc2ccc(C(=O)Nc3ccc4oc(N5CCS(=O)(=O)CC5)nc4c3)cc21 [Example 41, 4-Methyl-3,4-dihydro-2H-benzo[1,4]oxazine-6-carboxylic acid [2-(1,1-dioxo-thiomorpholin-4-yl)-benzooxazol-5-yl]-amide] | 2520 |
| O=C(Nc1ccc2oc(N3CCC[C@@H](O)C3)nc2c1)c1ccc2c(c1)CCO2 [Example 42, (R)—N-(2-(3-hydroxypiperidin-1-yl)benzo[d]oxazol-5-yl)-2,3-dihydrobenzofuran-5-carboxamide] | 566 |
| O=C(Nc1ccc2oc(N3CCC[C@H](O)C3)nc2c1)c1ccc2c(c1)CCO2 [Example 43, 2,3-Dihydro-benzofuran-5-carboxylic acid [2-((S)-3-hydroxy-piperidin-1-yl)-benzooxazol-5-yl]-amide] | 541 |
| CC(C)OC1CN(c2nc3cc(NC(=O)c4ccc5c(c4)CCO5)ccc3o2)C1 [Example 44, 2,3-Dihydro-benzofuran-5-carboxylic acid [2-(3-isopropoxy-azetidin-1-yl)-benzooxazol-5-yl]-amide] | 1140 |
| O=C(Nc1ccc2oc(N3CC[C@@H](O)C3)nc2c1)c1ccc2c(c1)CCO2 [Example 45, 2,3-Dihydro-benzofuran-5-carboxylic acid [2-((R)-3-hydroxy-pyrrolidin-1-yl)-benzooxazol-5-yl]-amide] | 573 |
| O=C(Nc1ccc2oc(N3CC[C@H](O)C3)nc2c1)c1ccc2c(c1)CCO2 [Example 46, 2,3-Dihydro-benzofuran-5-carboxylic acid [2-((S)-3-hydroxy-pyirolidin-1-yl)-benzooxazol-5-yl]-amide] | 570 |
| O=C(Nc1ccc2oc(N3CC(O)C3)nc2c1)c1ccc2c(c1)CCO2 [Example 47, 2,3-Dihydro-benzofuran-5-carboxylic acid [2-(3-hydroxy-azetidin-1-yl)-benzooxazol-5-yl]-amide] | 657 |
| O=C(Nc1ccc2oc(N3CCC(O)CC3)nc2c1)c1ccc2c(c1)CCO2 [Example 48, 2,3-Dihydro-benzofuran-5-carboxylic acid [2-(4-hydroxy-piperidin-1-yl)-benzooxazol-5-yl]-amide] | 448 |
| O=C(Nc1ccc2oc(N3CC(c4ccccc4)C3)nc2c1)c1ccc2c(c1)CCO2 [Example 49, 2,3-Dihydro-benzofuran-5-carboxylic acid [2-(3-phenyl-azetidin-1-yl)-benzooxazol-5-yl]-amide] | 1230 |
| O=C(Nc1ccc2oc(N3CCC4(CC3)COC4)nc2c1)c1ccc2c(c1)CCO2 [Example 50, 2,3-Dihydro-benzofuran-5-carboxylic acid [2-(2-oxa-7-aza-spiro[3.5]non-7-yl)-benzooxazol-5-yl]-amide] | 451 |
| CCOCC1CCCN1c1nc2cc(NC(=O)c3ccc4c(c3)CCO4)ccc2o1 (centres unmarked) [Example 51, 2,3-Dihydro-benzofuran-5-carboxylic acid [2-(2-ethoxymethyl-pyrrolidin-1-yl)-benzooxazol-5-yl]-amide] | 4570 |
| CN(CC1(F)COC1)c1nc2cc(NC(=O)c3ccc4c(c3)CCO4)ccc2o1 [Example 52, 2,3-Dihydro-benzofuran-5-carboxylic acid {2-[(3-fluoro-oxetan-3-ylmethyl)-methyl-amino]-benzooxazol-5-yl}-amide] | 899 |
